Values of other authors in publication PMC12505607 (BMC Medicine, 2025).
Where two headings read alike, the source gives them in different places.

Tests used:
[1] = system: patients
[2] = system: MATE1
[3] = system: OCT2
[4] = system: MATE2-K

recommended dose for combination with endocrine therapy ([1]; in vivo)	patients with grade 3 fatigue as DLTs ([1]; phase 1 dose-escalation study)	SMILES	incidence of grades 3–4 neutropenia ([1]; phase 1 study)	MATE1 inhibition [2]	OCT2 inhibition [3]	MATE2-K inhibition [4]	incidence of grades 3–4 neutropenia ([1]; in vivo)
		CN(C)C(=O)c1cc2cnc(Nc3ccc(N4CCNCC4)cn3)nc2n1C1CCCC1 [ribociclib]	27.0%				
150 mg BID	4 patients	CCN1CCN(Cc2ccc(Nc3ncc(F)c(-c4cc(F)c5nc(C)n(C(C)C)c5c4)n3)nc2)CC1 [abemaciclib]	32.0%	inhibition	inhibition	inhibition	
		CC(=O)c1c(C)c2cnc(Nc3ccc(N4CCNCC4)cn3)nc2n(C2CCCC2)c1=O [palbociclib]					33.0%
